In publication PMC7496508, “Modular Medical Imaging Agents Based on Azide–Alkyne Huisgen Cycloadditions: Synthesis and Pre‐Clinical Evaluation of ^18F‐Labeled PSMA‐Tracers for Prostate Cancer Imaging” (Chemistry (Weinheim an Der Bergstrasse, Germany), 2020):
“And” between values parts separate entries of the source, which are not always exact repeats. Equal values may be shown once.

Tests used:
[1] = distribution coefficient logD, n-octanol/PBS; format: physicochemical
Description: page 19: Figure S3: HPLC purification of [18F]PSMA-MIC02 (A) and after 4 h (B). 5. Distribution coefficient LogD. […] cup. 100 µL of the formulated final solution of [18F]PSMA-MIC01 or [18F]PSMA-MIC02 was added and vortexed for 1 minute and centrifuged for 5 min at […]. The different layers were separated and 100 µL of each layer were measured on a γ-counter. Based on the counts per minute (CPM) of each fraction, the partition coefficient was measured with the following formula: log(CPMoctanol/CPMPBS). The obtained data are as followed. Table S2. Counts per minute (CPM) of the 3 indidicually measured triplicates of [18F]PSMA-MIC01 of n- octanol and PBS. Octanol (CPM) PBS (CPM) BLK (CPM) LogD Mean SD […] No 1.2 2823.43 2715328.33 93.59 -2.99 […] No 2.3 394.49 640463.84 93.59 -3.21 […] No 3.2 3690.69 2357291.58 50.84 -2.81 No 3.3 5848.38 3956671.48 52.31 -2.83 -3.01 0.22 18 (1 picture or pasted object on this page, not shown here)

LNCaP (PSMA+) xenografts = experiment: PET image quantification of organ distribution (SUVmeanBW), LNCaP xenograft mice; format: in vivo, Balb/c nude mice
Description: (§1) The in vivo imaging potential of [^18F]PSMA‐MIC01 was evaluated using a murine animal model (see Supporting Information for experimental details).65 This was performed in a procedure that involved the study of the tumor uptake, binding specificity and comparison to [^68Ga]PSMA‐11. Tumor uptake of [^18F]PSMA‐MIC01 was assessed by performing a 90 min dynamic PET scan.
(§2) The animal experiments were all performed according to the ethical guidelines and approved by the local animal welfare committee of the University of Groningen (IvD number 15166-06-001. All animals were caged separately in individually ventilated cages.
(§3) 7-12 week old immune deficient Balb/c nude mice were inoculated with 200 µL of a 1:1 suspension of medium containing approximately 4 x10^6 LNCaP cells (PSMA positive cells) or 5 x 10^6 PC3 cells (PSMA-negative cells) in RPMI-1640, and Matrigel Basement Membrane Matrix High concentration. The cells were subcutaneously inoculated on the right shoulder.
(§4) After 3 to 5 weeks for LNCaP-xenografts, 2-3 weeks for PC3-xenografts or when a tumor size of 1cm3 was reached, the animals were transported to the PET imaging facility. For the […]
(§5) prepared and 100 µL were injected via penile vein injection 30 min prior to the tracer injection. Animals were anesthetized at 5 % isoflurane and maintained under 2 % isoflurane enriched with O2. The dynamic PET scan was started within 5 min after tracer injection with an acquisition time of 90 min. The static scan was performed 60 min after tracer injection with an acquisition time of 30 min. […]
(§6) In order to check for the significant differences, we also checked for the Cohen’s d, a measurement to determine the effect size. It is calculated on the following formula:
(§7) Cohen′sD = Mean1− Mean2 . […]

PC3 (PSMA-) xenografts = experiment: PET image quantification of organ distribution (SUVmeanBW), PC3 xenograft mice; format: in vivo, Balb/c nude mice
Description: as §1, §2, §3, §4, §5, §6, §7

[2] = radiotracer stability in formulation, radio-HPLC; format: physicochemical; conditions: 10 % EtOH/PBS, 4 h
Description: Clinical translation requires higher amounts of radioactivity than those manually achievable, which are limited by radiation burden for the radiochemist. Therefore, the synthesis of [^18F]PSMA‐MIC01 was automated on a FlowSafe radiosynthesis module, a continuous‐flow microfluidics platform (see Supporting Information for details). [^18F]PSMA‐MIC01 was produced in an overall RCY of 21 % with an overall production time of 139 min (see Supporting Information for experimental details). The higher RCY can be explained by the use of the microfluidic set up for the [^18F]fluorination towards intermediate [^18F]9. Microfluidic systems have a higher surface‐to‐volume ratio which results in an increased heat transfer capacity compared to in‐batch syntheses.62 This enabled reduction of the effective reaction time of the [^18F]fluorination to 75 s with concomitant reduction of ^18F‐side‐products and increased the intermediary RCY of [^18F]9 to 42 % and overall RCY to 21 %. […] The measured lipophilicity (logD) in n‐octanol/PBS was −3.01±0.22 (see Supporting Information). […]
The stabilities of [18F]PSMA-MIC01 and [18F]PSMA-MIC02 were tested, to ensure the integrity of the tracer in solution. […] After purification and formulation into an injectable solution of 10 % EtOH in PBS, the radiotracer was analysed by HPLC again (B),which was repeated after 2 h (C) and 4 h (D). […]

[3] = LNCaP-blocked (PSMA+), 2-PMPA prior to tracer

logD ([1]; n-octanol/PBS, pH 7.4, n-octanol/PBS pH 7.4, overall mean): -3.01 ± 0.22
SUVmeanBW Bladder (LNCaP (PSMA+) xenografts; LNCaP (PSMA+) xenograft): 10.2 ± 6.7
SUVmeanBW Brain (LNCaP (PSMA+) xenografts; LNCaP (PSMA+) xenograft): 0.2 ± 0.1
SUVmeanBW Heart (LNCaP (PSMA+) xenografts; LNCaP (PSMA+) xenograft): 0.4 ± 0.2
SUVmeanBW Kidney (LNCaP (PSMA+) xenografts; LNCaP (PSMA+) xenograft): 4.4 ± 1.4
SUVmeanBW Liver (LNCaP (PSMA+) xenografts; LNCaP (PSMA+) xenograft): 0.8 ± 0.2
SUVmeanBW Muscle (LNCaP (PSMA+) xenografts; LNCaP (PSMA+) xenograft): 0.2 ± 0.1
SUVmeanBW Tumor (LNCaP (PSMA+) xenografts; LNCaP (PSMA+) xenograft): 0.6 ± 0.4
SUVmeanBW Bladder (LNCaP (PSMA+) xenografts; [3]): 20.7 ± 12.4
SUVmeanBW Brain (LNCaP (PSMA+) xenografts; [3]): 0.1 ± 0.0
SUVmeanBW Heart (LNCaP (PSMA+) xenografts; [3]): 0.4 ± 0.1
SUVmeanBW Kidney (LNCaP (PSMA+) xenografts; [3]): 2.6 ± 1.7
SUVmeanBW Liver (LNCaP (PSMA+) xenografts; [3]): 0.8 ± 0.4
SUVmeanBW Muscle (LNCaP (PSMA+) xenografts; [3]): 0.2 ± 0.1
SUVmeanBW Tumor (LNCaP (PSMA+) xenografts; [3]): 0.3 ± 0.1
SUVmeanBW Bladder (PC3 (PSMA-) xenografts): 3.9 ± 0.4
SUVmeanBW Brain (PC3 (PSMA-) xenografts): 0.2 ± 0.1
SUVmeanBW Heart (PC3 (PSMA-) xenografts): 0.7 ± 0.2
SUVmeanBW Kidney (PC3 (PSMA-) xenografts): 5.1 ± 1.9
SUVmeanBW Liver (PC3 (PSMA-) xenografts): 1.5 ± 0.5
SUVmeanBW Muscle (PC3 (PSMA-) xenografts): 0.3 ± 0.1
SUVmeanBW Tumor (PC3 (PSMA-) xenografts): 0.4 ± 0.2
SMILES: O=C(O)CC[C@H](NC(=O)N[C@@H](CCCCNC(=O)c1ccc(-c2cn(CCOCCOCC[18F])nn2)cc1)C(=O)O)C(=O)O [[^18F]PSMA‐MIC01]
LogD, individual measurements ([1]; n-octanol/PBS pH 7.4, single measurements): -3.03 and -2.99 and -3.02 and -3.27 and -3.20 and -3.21 and -2.72 and -2.81 and -2.83
stability of the radiotracer [2]: No degradation products could be detected
